Biological target: ASK1 (Homo sapiens (Human), UniProt Q99683)
Assay: HTRF KinEASE Assay (TR-FRET, STK3 peptide substrate), inhibition of ASK1
Format: biochemical
Settings: 5 nM ASK1 kinase, 1 μM STK3 peptide substrate, 100 μM ATP, 3 hours; compound 0 to 10 μM
Procedure: Assay HTRF® KinEASE™ Assay
ASK1 was purchased from Thermofisher (Catalogue # PV4011), ATP was purchased from Sigma (Catalogue # A7699), HI-TRF® KinEASE™ Assay System was obtained from Cisbio (Bedford, Mass.). […] HTRF® KinEASE™-STK is a generic method for measuring serine/threonine kinase activities using a time-resolved fluorescence resonance energy transfer (TR-FRET) immunoassay. […] 100 Um ATP is added to start kinase reaction and incubated for 3 hours. The STK3-antibody labeled with Eu^3+-Cryptate and 125 Nm streptavidin-XL665 are mixed in a single addition with stop reagents provided by the Cisbio kit used to stop the kinase reaction. […] The resulting TR-FRET is proportional to the phosphorylation level. Staurosporine was used as the positive control. IC50 was determined by Xlfit 5.3.
By using above method, the inhibition of ASK1 was evaluated for the compounds of Formula (I).

ASK1, sequence (Q99683 whole entry): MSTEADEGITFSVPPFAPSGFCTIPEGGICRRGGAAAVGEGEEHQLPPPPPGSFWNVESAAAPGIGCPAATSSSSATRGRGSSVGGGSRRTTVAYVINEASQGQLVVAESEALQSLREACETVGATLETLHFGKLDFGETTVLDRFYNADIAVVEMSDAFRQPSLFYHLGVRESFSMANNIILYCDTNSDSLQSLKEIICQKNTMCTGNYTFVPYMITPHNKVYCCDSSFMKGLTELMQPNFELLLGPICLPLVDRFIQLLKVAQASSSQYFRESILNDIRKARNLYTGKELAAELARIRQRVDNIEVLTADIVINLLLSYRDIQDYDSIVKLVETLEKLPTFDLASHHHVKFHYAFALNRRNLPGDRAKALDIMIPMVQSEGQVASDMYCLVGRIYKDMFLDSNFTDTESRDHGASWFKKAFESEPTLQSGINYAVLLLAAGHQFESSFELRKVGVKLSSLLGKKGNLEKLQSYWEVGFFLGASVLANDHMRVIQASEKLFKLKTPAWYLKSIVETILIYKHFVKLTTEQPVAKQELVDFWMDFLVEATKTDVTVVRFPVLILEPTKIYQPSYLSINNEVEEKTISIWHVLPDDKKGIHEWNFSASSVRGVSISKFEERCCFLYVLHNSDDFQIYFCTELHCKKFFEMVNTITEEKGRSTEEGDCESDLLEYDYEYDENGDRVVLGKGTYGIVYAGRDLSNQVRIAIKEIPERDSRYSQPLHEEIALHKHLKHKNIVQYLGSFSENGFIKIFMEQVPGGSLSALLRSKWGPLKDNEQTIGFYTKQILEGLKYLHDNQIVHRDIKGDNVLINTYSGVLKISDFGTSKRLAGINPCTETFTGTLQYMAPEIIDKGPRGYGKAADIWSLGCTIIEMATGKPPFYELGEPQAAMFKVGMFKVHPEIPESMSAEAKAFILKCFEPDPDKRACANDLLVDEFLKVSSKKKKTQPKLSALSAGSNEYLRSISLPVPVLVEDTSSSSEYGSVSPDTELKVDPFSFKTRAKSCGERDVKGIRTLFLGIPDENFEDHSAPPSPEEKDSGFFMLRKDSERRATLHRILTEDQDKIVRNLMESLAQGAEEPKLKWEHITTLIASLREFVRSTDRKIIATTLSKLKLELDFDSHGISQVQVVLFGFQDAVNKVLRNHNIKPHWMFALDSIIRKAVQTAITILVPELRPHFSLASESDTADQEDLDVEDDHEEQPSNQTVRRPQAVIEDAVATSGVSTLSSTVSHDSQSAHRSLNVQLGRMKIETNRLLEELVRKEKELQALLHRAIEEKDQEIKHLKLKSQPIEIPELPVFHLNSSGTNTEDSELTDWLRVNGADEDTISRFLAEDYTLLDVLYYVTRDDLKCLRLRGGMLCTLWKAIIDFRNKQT

Compound | IC50 [µM]
2-(N,N-dimethylsulfamoyl)-N-(6-(4-isopropyl-4H-1,2,4-triazol-3-yl)pyridin-2-yl)isoindoline-5-carboxamide [Example 10] | > 1
CC(C)N1Cc2ccc(C(=O)Nc3cccc(-c4nnnn4C(C)C)n3)cc2C1=O [Example 1, 2-isopropyl-N-(6-(1-isopropyl-1H-tetrazol-5-yl)pyridin-2-yl)-3-oxoisoindoline-5-carboxamide] | 0.1 to 1
CC(C)n1nnnc1-c1cccc(NC(=O)c2ccc3c(c2)CN(C(=O)OCc2ccccc2)C3)n1 [Example 2] | > 1
CC(C)n1cnnc1-c1cccc(NC(=O)c2ccc3c(c2)CN(C(=O)OCc2ccccc2)C3)n1 [Example 3, benzyl 5-((6-(4-isopropyl-4H-1,2,4-triazol-3-yl)pyridin-2-yl)carbamoyl)isoindoline-2-carboxylate] | 0.01 to 0.1
CC(C)n1cnnc1-c1cccc(NC(=O)c2ccc3c(c2)CN(S(=O)(=O)CCC(F)(F)F)C3)n1 [Example 4, N-(6-(4-isopropyl-4H-1,2,4-triazol-3-yl)pyridin-2-yl)-2-((3,3,3-trifluoropropyl)sulfonyl)isoindoline-5-carboxamide] | 0.1 to 1
CCN(C)C(=O)N1Cc2ccc(C(=O)Nc3cccc(-c4nncn4C(C)C)n3)cc2C1 [Example 5, N2-ethyl-N5-(6-(4-isopropyl-4H-1,2,4-triazol-3-yl)pyridin-2-yl)-N2-methylisoindoline-2,5-dicarboxamide] | 0.1 to 1
COCCS(=O)(=O)N1Cc2ccc(C(=O)Nc3cccc(-c4nncn4C(C)C)n3)cc2C1 [Example 6] | 0.1 to 1
CCOC(=O)N1Cc2ccc(C(=O)Nc3cccc(-c4nncn4C(C)C)n3)cc2C1 [Example 7, ethyl 5-((6-(4-isopropyl-4H-1,2,4-triazol-3-yl)pyridin-2-yl)carbamoyl)isoindoline-2-carboxylate] | 0.1 to 1
CC(C)n1nnnc1-c1cccc(NC(=O)c2ccc3c(c2)CNC3)n1 [Example 8] | > 1
CC(C)n1cnnc1-c1cccc(NC(=O)c2ccc3c(c2)CNC3)n1 [Example 9, N-(6-(4-isopropyl-4H-1,2,4-triazol-3-yl)pyridin-2-yl)isoindoline-5-carboxamide] | > 1
CC(C)n1nnnc1-c1cccc(NC(=O)c2ccc3c(c2)CN(C(=O)N2CCCC2)C3)n1 [Example 11] | 0.1 to 1
CC(C)n1nnnc1-c1cccc(NC(=O)c2ccc3c(c2)CN(C(=O)N(C)C)C3)n1 [Example 12] | 0.1 to 1
CCN(C)C(=O)N1Cc2ccc(C(=O)Nc3cccc(-c4nnnn4C(C)C)n3)cc2C1 [Example 13] | > 1
CC(C)n1nnnc1-c1cccc(NC(=O)c2ccc3c(c2)CN(S(=O)(=O)CCC(F)(F)F)C3)n1 [Example 14] | > 1
COCCS(=O)(=O)N1Cc2ccc(C(=O)Nc3cccc(-c4nnnn4C(C)C)n3)cc2C1 [Example 15] | > 1
CCOC(=O)N1Cc2ccc(C(=O)Nc3cccc(-c4nnnn4C(C)C)n3)cc2C1 [Example 16] | > 1
CC(C)n1cnnc1-c1cccc(NC(=O)c2ccc3c(c2)CN(C(=O)N2CCCC2)C3)n1 [Example 17] | 0.01 to 0.1
CC(C)N1Cc2cnc(C(=O)Nc3cccc(-c4nnnn4[C@H](C)CO)n3)cc2C1=O [Example 18, (R)—N-(6-(1-(1-hydroxypropan-2-yl)-1H-tetrazol-5-yl)pyridin-2-yl)-2-isopropyl-1-oxo-2,3-dihydro-1H-pyrrolo[3,4-c]pyridine-6-carboxamide] | 0.01 to 0.1

Compound | IC50 [µM]
CC(C)N1Cc2cnc(C(=O)Nc3cccc(-c4nncn4C(C)C)n3)cc2C1=O [Example 19, 2-isopropyl-N-(6-(4-isopropyl-4H-1,2,4-triazol-3-yl)pyridin-2-yl)-1-oxo-2,3-dihydro-1H-pyrrolo[3,4-c]pyridine-6-carboxamide] | 0.01 to 0.1
CC(C)n1cnnc1-c1cccc(NC(=O)c2cc3c(cc2F)CCNC3)n1 [Example 27] | 0.01 to 0.1
COCCC(=O)N1CCc2cc(F)c(C(=O)Nc3cccc(-c4nnnn4C(C)C)n3)cc2C1 [Example 28] | 0.01 to 0.1
CCOC(=O)N1CCc2cc(F)c(C(=O)Nc3cccc(-c4nnnn4C(C)C)n3)cc2C1 [Example 30] | 0.01 to 0.1
CC(C)n1nnnc1-c1cccc(NC(=O)c2cc3c(cc2F)CCN(C(=O)OCc2ccccc2)C3)n1 [Example 31] | 0.01 to 0.1
CC(C)n1cnnc1-c1cccc(NC(=O)c2ccc3c(c2)CN(C(=O)c2nccs2)CC3)n1 [Example 32] | 0.01 to 0.1
C=CCNC(=O)N1CCc2ccc(C(=O)Nc3cccc(-c4nncn4C(C)C)n3)cc2C1 [Example 33] | 0.01 to 0.1
CC(C)n1cnnc1-c1cccc(NC(=O)c2ccc3c(c2)CN(C(=O)OC2CCCC2)CC3)n1 [Example 34] | 0.01 to 0.1
CCCOC(=O)N1CCc2ccc(C(=O)Nc3cccc(-c4nncn4C(C)C)n3)cc2C1 [Example 35] | 0.01 to 0.1
CCOC(=O)N1CCc2ccc(C(=O)Nc3cccc(-c4nncn4C(C)C)n3)cc2C1 [Example 36] | 0.01 to 0.1
CC(C)n1cnnc1-c1cccc(NC(=O)c2ccc3c(c2)CNCC3)n1 [Example 37, N-(6-(4-isopropyl-4H-1,2,4-triazol-3-yl)pyridin-2-yl)-1,2,3,4-tetrahydroisoquinoline-7-carboxamide] | 0.1 to 1
COCCCN1CCc2ccc(C(=O)Nc3cccc(-c4nncn4C(C)C)n3)cc2C1 [Example 38, N-(6-(4-isopropyl-4H-1,2,4-triazol-3-yl)pyridin-2-yl)-2-(3-methoxypropyl)-1,2,3,4-tetrahydroisoquinoline-7-carboxamide] | 0.1 to 1
C=CCN1CCc2ccc(C(=O)Nc3cccc(-c4nncn4C(C)C)n3)cc2C1 [Example 39, 2-allyl-N-(6-(4-isopropyl-4H-1,2,4-triazol-3-yl)pyridin-2-yl)-1,2,3,4-tetrahydroisoquinoline-7-carboxamide] | 0.1 to 1
CC(C)n1nnnc1-c1cccc(NC(=O)c2cc3c(cc2F)CCN(S(=O)(=O)CCC(F)(F)F)C3)n1 [Example 40] | 0.01 to 0.1
CC(C)n1cnnc1-c1cccc(NC(=O)c2cc3c(cc2F)CCN(S(=O)(=O)CC2CC2)C3)n1 [Example 43] | 0.01 to 0.1
CC(C)n1cnnc1-c1cccc(NC(=O)c2cc3c(cc2F)CCN(C(=O)N2CCOCC2)C3)n1 [Example 50] | 0.01 to 0.1
CC(C)n1cnnc1-c1cccc(NC(=O)c2cc3c(cc2F)CCN(C(=O)OCc2ccccc2)C3)n1 [Example 53, benzyl 6-fluoro-7-((6-(4-isopropyl-4H-1,2,4-triazol-3-yl)pyridin-2-yl)carbamoyl)-3,4-dihydroisoquinoline-2(1H)-carboxylate] | 0.01 to 0.1

Other lines, results leading:

IC50 [µM] | Compound
0.001 to 0.01 | CC(C)n1cnnc1-c1cccc(NC(=O)c2cc3c(cc2F)CCN(S(=O)(=O)NC2CC2)C3)n1 [Example 20, 2-(N-cyclopropylsulfamoyl)-6-fluoro-N-(6-(4-isopropyl-4H-1,2,4-triazol-3-yl)pyridin-2-yl)-1,2,3,4-tetrahydroisoquinoline-7-carboxamide]
0.001 to 0.01 | CC(C)n1cnnc1-c1cccc(NC(=O)c2cc3c(cc2F)CCN(S(=O)(=O)C2CCCC2)C3)n1 [Example 21]
0.001 to 0.01 | CCNS(=O)(=O)N1CCc2cc(F)c(C(=O)Nc3cccc(-c4nncn4C(C)C)n3)cc2C1 [Example 22]
0.001 to 0.01 | COCCS(=O)(=O)N1CCc2cc(F)c(C(=O)Nc3cccc(-c4nncn4C(C)C)n3)cc2C1 [Example 23]
0.001 to 0.01 | COCCC(=O)N1CCc2cc(F)c(C(=O)Nc3cccc(-c4nncn4C(C)C)n3)cc2C1 [Example 24, 6-fluoro-N-(6-(4-isopropyl-4H-1,2,4-triazol-3-yl)pyridin-2-yl)-2-(3-methoxypropanoyl)-1,2,3,4-tetrahydroisoquinoline-7-carboxamide]
0.001 to 0.01 | CC(C)n1cnnc1-c1cccc(NC(=O)c2cc3c(cc2F)CCN(C(=O)OC2CCCC2)C3)n1 [Example 25]
0.001 to 0.01 | CCOC(=O)N1CCc2cc(F)c(C(=O)Nc3cccc(-c4nncn4C(C)C)n3)cc2C1 [Example 26]
0.001 to 0.01 | CCNC(=O)N1CCc2cc(F)c(C(=O)Nc3cccc(-c4nnnn4C(C)C)n3)cc2C1 [Example 29, N2-ethyl-6-fluoro-N7-(6-(1-isopropyl-1H-tetrazol-5-yl)pyridin-2-yl)-3,4-dihydroisoquinoline-2,7(1H)-dicarboxamide]
0.001 to 0.01 | CCN(CC)C(=O)N1CCc2cc(F)c(C(=O)Nc3cccc(-c4nncn4C(C)C)n3)cc2C1 [Example 41]
0.001 to 0.01 | CC(C)CS(=O)(=O)N1CCc2cc(F)c(C(=O)Nc3cccc(-c4nncn4C(C)C)n3)cc2C1 [Example 42]
0.001 to 0.01 | CC(C)n1cnnc1-c1cccc(NC(=O)c2cc3c(cc2F)CCN(C(=O)N2CCCC2)C3)n1 [Example 44]
0.001 to 0.01 | CCN(C)C(=O)N1CCc2cc(F)c(C(=O)Nc3cccc(-c4nncn4C(C)C)n3)cc2C1 [Example 45]
0.001 to 0.01 | CC(C)n1cnnc1-c1cccc(NC(=O)c2cc3c(cc2F)CCN(S(=O)(=O)CCC(F)(F)F)C3)n1 [Example 46]
0.001 to 0.01 | CC(C)n1cnnc1-c1cccc(NC(=O)c2cc3c(cc2F)CCN(S(=O)(=O)C2CC2)C3)n1 [Example 47]
0.001 to 0.01 | CC(C)n1cnnc1-c1cccc(NC(=O)c2cc3c(cc2F)CCN(C(=O)N(C)C)C3)n1 [Example 48]
0.001 to 0.01 | CC(C)n1cnnc1-c1cccc(NC(=O)c2cc3c(cc2F)CCN(S(=O)(=O)N(C)C)C3)n1 [Example 49]
0.001 to 0.01 | CC(C)n1cnnc1-c1cccc(NC(=O)c2cc3c(cc2F)CCN(C(=O)NC2CCCC2)C3)n1 [Example 51]
0.001 to 0.01 | CCNC(=O)N1CCc2cc(F)c(C(=O)Nc3cccc(-c4nncn4C(C)C)n3)cc2C1 [Example 52]

Source: patent publication US10450301B2, “Apoptosis signal-regulating kinase 1 inhibitors and methods of use thereof” (ENANTA PHARMACEUTICALS, INC., priority 2017, dated 2019)
